In article PMC4866688, “Trypanosoma brucei DHFR-TS Revisited: Characterisation of a Bifunctional and Highly Unstable Recombinant Dihydrofolate Reductase-Thymidylate Synthase” (PLoS Neglected Tropical Diseases, 2016):
Several values for one entry are separate records, joined by “and”; a condition that tells them apart may be missing. Equal values may be shown once. Read-outs that look alike come from different tables or passages of the source.

What was measured:
[1] = molecular target: T1, T. brucei DHFR (Tsf-TbDHFR-TS) (Trypanosoma brucei brucei, UniProt Q27783); assay: Kinetic analysis of DHFR activity (substrates); type: biochemical; parameters: The open reading frame of DHFR-TS was amplified by PCR from T. brucei gDNA using specific oligonucleotides; made in house; host or cells: thyA- E. coli derived from BL21 Star (DE3); conditions: for Activity as substrate for T. brucei DHFR: <17,000-fold (folate) and <2,300-fold (pterins) compared to DHF as substrate
[2] = molecular target: T2, T. brucei TS (Tsf-TbDHFR-TS) (Trypanosoma brucei brucei, UniProt Q27783); assay: Stabilisation of recombinant T. brucei TS activity in desalted, diluted lysate; type: biochemical
T2 construct: The open reading frame of DHFR-TS was amplified by PCR from T. brucei gDNA using specific oligonucleotides; made in house; host or cells: thyA- E. coli derived from BL21 Star (DE3); unpurified clarified lysate
Experimental: (§1) The initial characterisation of TS was also carried out using a spectrophotometric assay. […] Enzymatic reactions were initiated by the addition of CH2THF (200 μM, Shircks Laboratories) and initial rates of CH2THF oxidation to DHF monitored by the increase in absorbance at 340 nm (ε = 6,200 M^-1 cm^-1). […] Residual 5-[^3H]-dUMP was removed by the addition of 200 μl of 10% (w/v) activated charcoal (Sigma). Aliquots (100 μl) of the supernatants were added to 2 ml of scintillation fluid (Pico-Fluor 40™, Packard Bioscience) and radioactivity determined using a Beckmann LS 6500 Scintillation Counter. To determine TS activity in clarified T. brucei lysates the incubation time was increased to 30 min and the assay volume was increased to ~200 μl. […] For stability experiments all lysates were desalted using 0.5 ml Zeba Spin Desalting Columns (7K MWCO). Protein concentrations were determined using the BioRad protein assay based on the method of Bradford. Inhibitors (8-point doubling dilutions) were assayed using the radiometric method in the presence of 100 μM CH2THF, 200 μM dUMP and 200 nM Tsf-TbDHFR-TS.
Target sequence in this assay (Q27783 whole entry): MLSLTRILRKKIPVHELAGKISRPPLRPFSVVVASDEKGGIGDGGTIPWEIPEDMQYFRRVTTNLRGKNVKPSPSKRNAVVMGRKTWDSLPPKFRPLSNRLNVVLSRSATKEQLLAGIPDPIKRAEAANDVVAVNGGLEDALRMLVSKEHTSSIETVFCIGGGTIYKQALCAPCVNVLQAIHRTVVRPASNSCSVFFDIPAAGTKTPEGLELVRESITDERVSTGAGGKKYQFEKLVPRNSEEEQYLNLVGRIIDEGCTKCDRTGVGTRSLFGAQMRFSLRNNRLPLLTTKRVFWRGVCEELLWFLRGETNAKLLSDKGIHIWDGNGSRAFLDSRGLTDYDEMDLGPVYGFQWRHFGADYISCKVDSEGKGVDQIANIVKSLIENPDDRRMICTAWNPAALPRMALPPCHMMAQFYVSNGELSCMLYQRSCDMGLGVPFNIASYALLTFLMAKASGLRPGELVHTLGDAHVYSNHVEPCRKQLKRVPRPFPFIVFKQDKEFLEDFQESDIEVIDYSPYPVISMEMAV
Target sequence in this assay (P0A6P1 whole entry partner): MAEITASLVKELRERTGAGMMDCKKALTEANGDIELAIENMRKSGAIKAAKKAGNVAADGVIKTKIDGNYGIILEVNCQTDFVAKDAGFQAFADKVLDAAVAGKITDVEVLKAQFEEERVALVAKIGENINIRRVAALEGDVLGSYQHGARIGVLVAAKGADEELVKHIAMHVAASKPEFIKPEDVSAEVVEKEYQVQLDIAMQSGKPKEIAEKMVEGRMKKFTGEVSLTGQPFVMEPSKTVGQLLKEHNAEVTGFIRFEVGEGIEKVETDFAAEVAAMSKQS

[3] = molecular target: T1, T. brucei DHFR (Tsf-TbDHFR-TS); assay: Inhibition of DHFR activity of recombinant Tsf-TbDHFR-TS (spectrophotometric, 340 nm)
Experimental: DHFR activity was determined spectrophotometrically at 340 nm [18]. DHFR (5 nM) was pre-incubated with 100 μM NADPH (Medford) in assay buffer (50 mM HEPES, pH 7.4, containing 100 mM KCl) for 1 min at 25°C (1 ml final assay volume), before the addition of 100 μM DHF (Sigma Aldrich). […] The Km^app values for DHFR substrates were determined by varying the concentration of one substrate in the presence of a fixed saturating concentration of the other. IC50 values were determined using 8-point doubling dilutions of inhibitor under the above standard assay conditions.
Results were analysed by non-linear regression using GraFit v 5.0.13 (Erithacus Software). Km^app values were determined using the Michaelis-Menten equation. IC50 values were determined using eq 1 and Ki values calculated using the Cheng-Prusoff eq 2 [23].

[4] = tested on: T. brucei bloodstream-form 'single marker' S427; assay: Growth inhibition of wild type T. brucei, 72 h, resazurin-based assay; type: cell-based; conditions: Trypanosoma brucei
Experimental: Wild type (WT) T. brucei bloodstream-form ‘single marker’ S427 were cultured in HMI9T medium supplemented with 2.5 μg ml^-1 G418 to maintain expression of T7 RNA polymerase and the tetracycline repressor protein [27]. HMI9T medium (standard media for T. brucei cell culture) contains high concentrations of folate (~9 μM) and thymidine (~160 μM) principally from IMDM and 10% Serum Plus components. A medium based on HMI9T, only lacking Serum Plus, folate and thymidine was prepared in-house, named trypanosome base media (TBM; the residual folate is provided by the serum component). A comparison of these media is described in S2 Table. WT T. brucei cells grow normally in TBM and the rate of growth is similar to HMI9T in TBM with no supplementation, supplementation with 9 μM folate, 160 μM thymidine or supplementation with both folate and thymidine (7–8 h doubling time).
EC50 of antifolates against T. brucei were determined in 96-well microtitre plates. Serial doubling dilutions of antifolate drugs (10–50 mM stocks prepared in DMSO) were prepared in 100 μl of the appropriate medium and trypanosomes (resuspended in the same medium) added in 100 μl to give a final concentration of 2.5 × 10^3 cells ml^-1. All wells, including controls, contained a final volume of 0.5% DMSO. Cultures were incubated for 72 h at 37°C / 5% CO2 before cell density was determined using a resazurin-based assay. EC50 values were calculated using GraFit v 5.0.13 (Erithacus Software) with a 3-parameter non-linear regression from triplicate readings. Antifolates were tested against parasites cultured in TBM; this allowed for the addition of thymidine (160 μM) and folate (9 μM) respectively.

[5] = molecular target: T2, T. brucei TS (Tsf-TbDHFR-TS); assay: Inhibition of TS activity of Tsf-TbDHFR-TS in clarified thyA- E. coli lysate; type: biochemical; conditions: for Ki: TS Ki, T. brucei, 100 μM CH2THF, 200 μM dUMP, 200 nM Tsf-TbDHFR-TS, Inactive * = no inhibition at 25 μM, ** = no inhibition at 100 μM
Experimental: as §1
Target sequence in this assay (Q27783 whole entry): as the sequence (Q27783 whole entry) above
Target sequence in this assay (P0A6P1 whole entry, further chain): as the sequence (P0A6P1 whole entry partner) above

Human DHFR = conditions: cited from earlier work
[6] = molecular target: T2, T. brucei TS (Tsf-TbDHFR-TS); assay: Kinetic analysis of TS activity (substrates); type: biochemical; conditions: clarified E. coli lysate, radiometric assay; read-out: CH2THF Km^app
Experimental: The initial characterisation of TS was also carried out using a spectrophotometric assay. Owing to the pronounced instability of the recombinant protein, clarified ThyA^- E. coli lysates were used for characterisation, where the concentration of TS was calculated based on DHFR activity. […] . Enzymatic reactions were initiated by the addition of CH2THF (200 μM, Shircks Laboratories) and initial rates of CH2THF oxidation to DHF monitored by the increase in absorbance at 340 nm (ε = 6,200 M^-1 cm^-1). This method is not suitable for determination of the Km^app for CH2THF and a radiometric method was used instead. This method measures the release of tritiated water from 5-[^3H]-dUMP (American Radiochemicals, 14.3 Ci mmol^-1). Assays (40 μl final volume) contained 200 nM TS and varying amounts of CH2THF (37.5 μM– 4.8 mM) in DHFR-assay buffer. Reactions were initiated by adding 200 μM [^3H]-dUMP (5.55 × 10^5 dpm nmol^-1) and stopped after 10 min by the addition of 20 μl trichloroacetic acid. Residual 5-[^3H]-dUMP was removed by the addition of 200 μl of 10% (w/v) activated charcoal (Sigma). Aliquots (100 μl) of the supernatants were added to 2 ml of scintillation fluid (Pico-Fluor 40™, Packard Bioscience) and radioactivity determined using a Beckmann LS 6500 Scintillation Counter. […] Protein concentrations were determined using the BioRad protein assay based on the method of Bradford. […]
Target sequence in this assay (Q27783 whole entry): as the sequence (Q27783 whole entry) above
Target sequence in this assay (P0A6P1 whole entry partner): as the sequence (P0A6P1 whole entry partner) above

Human TS = conditions: ref Dolnick and Cheng [32]; cited from earlier work
[7] = DHFR Ki, T. brucei, recombinant TbDHFR-TS, from IC50 (Cheng-Prusoff) or Morrison equation for tight binders, Inactive ** = no inhibition at 100 μM
[8] = TBM (folate and thymidine deficient), read-out: EC50, No addition
[9] = TBM + folate (9 μM), read-out: EC50, + Folate
[10] = TBM + thymidine (160 μM) + folate (9 μM), read-out: EC50, + Thymidine + Folate
[11] = TBM + thymidine (160 μM), read-out: EC50, + Thymidine

T1 sequence (Q27783 whole entry): as the sequence (Q27783 whole entry) above

NC(=O)C1=CN([C@@H]2O[C@H](COP(=O)(O)OP(=O)(O)OC[C@H]3O[C@@H](n4cnc5c(N)ncnc54)[C@H](OP(=O)(O)O)[C@@H]3O)[C@@H](O)[C@H]2O)C=CC1 [NADPH]
Km ([1]; Tsf-TbDHFR-TS, purified, read-out: NADPH Km^app): 1.7 ± 0.2 µM

O=c1ccn([C@H]2C[C@H](O)[C@@H](COP(=O)(O)O)O2)c(=O)[nH]1 [dUMP, deoxyuridine monophosphate]
Increase in stability of TS activity ([2]; 200 μM dUMP vs no dUMP): 700 fold | EC50 ([2]; absence of CH2THF, diluted lysate incubated 10 min, read-out: Half maximal concentration required to stabilise TS activity): 12.6 ± 2.5 µM

COc1cc(Cc2cnc(N)nc2N)cc(OC)c1OC [Trimethoprim, trimethoprim]
Ki ([3]; DHFR Ki (competitive inhibition, global fit, Fig 5), varying DHF, fixed amounts of inhibitor, non-linear regression): 0.0114 ± 0.0012 µM | Ki [3, 7]: 0.0176 ± 0.0015 µM | Modality of inhibition of DHFR ([3]; with respect to DHF): competitive inhibitors | EC50 [4, 8]: 48.8 ± 3.7 µM | EC50 [4, 9]: 170 ± 28 µM | EC50 [4, 10]: 145 ± 22 µM | EC50 [4, 11]: 59.8 ± 8.6 µM

C[C@H](O)[C@H](O)C1=Nc2c(nc(N)[nH]c2=O)NC1 [dihydrobiopterin]
Activity as substrate for T. brucei DHFR [1]: inactive

Nc1nc2[nH]cc(CCc3ccc(C(=O)N[C@@H](CCC(=O)O)C(=O)O)cc3)c2c(=O)[nH]1 [Pemetrexed, pemetrexed]
Ki [3, 7]: 0.29 ± 0.02 µM | Ki [5]: 20.5 µM | Ki (Human DHFR; ref Shih et al. [11]): 0.007 µM | EC50 [4, 8]: 0.02 ± 0.001 µM | EC50 [4, 9]: 12.9 ± 1.1 µM | EC50 [4, 10]: > 250 µM | EC50 [4, 11]: > 250 µM

biopterin
Activity as substrate for T. brucei DHFR [1]: inactive

Cc1ccc2nc(N)[nH]c(=O)c2c1Sc1ccncc1 [Nolatrexed, nolatrexed]
Ki [3, 7]: 0.348 ± 0.03 µM | Ki [5]: 0.039 µM and 0.0394 µM | DHFR Ki, Human (Human DHFR; ref Webber et al. [10]): Inactive^h | EC50 ([4]; read-out: EC50, + Folate): 21.8 ± 2 µM | EC50 ([4]; read-out: EC50, + Thymidine): 32.7 ± 4.7 µM | EC50 ([4]; read-out: EC50, + Thymidine + Folate): 39.6 ± 7.2 µM | EC50 ([4]; read-out: EC50, No addition): 33.8 ± 3.7 µM

Nc1nc2c(c(=O)[nH]1)N1CN(c3ccc(C(=O)N[C@@H](CCC(=O)O)C(=O)O)cc3)CC1CN2 (stereo partly shown) [CH2THF, N^5, N^10-methylenetetrahydrofolate]
Km [6]: 470 ± 50 µM

O=c1[nH]c(=O)n([C@H]2C[C@H](O)[C@@H](COP(=O)(O)O)O2)cc1F [FdUMP, 5-fluorodeoxyuridine monophosphate]
DHFR Ki, T. brucei ([3]; recombinant TbDHFR-TS, from IC50 (Cheng-Prusoff) or Morrison equation for tight binders, Inactive ** = no inhibition at 100 μM): Inactive ^** | Ki [5]: 0.014 µM and 0.0138 µM | Modality of inhibition of TS ([5]; dUMP-competitive): tight-binding inhibition | Ki (Human TS): 0.0017 µM
